The results in this text go back to the supplement of paper PMC11061612.

The subject of one assay is A204 (Rhabdomyosarcoma). Description: Bliss excess, mean over the matrix (fraction); higher = more synergy. The method in brief:
(§1)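 Cell lines grown in DMEM/F12 or RPMI with 10% FBS were plated in 1536-well plates and held 24 hours at 37°C, 5% CO2 before 72 hours of exposure to two-drug dose matrices, with DMSO typically at 0.2%. CellTiter-Glo 2.0 luminescence gave viability, which was converted to inhibition. Vehicle wells were set to 0 and blank wells to 1. Combination Emax is the second-highest inhibition in the matrix, and Bliss excess is the observed combination effect minus the expected EA + EB − EA·EB, where EA and EB are the single-agent effects.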

Assay [1] deals with AU565 (Breast Carcinoma). The description is as above. The method in brief:
as §1

The test system of assay [2] is CA46 (Burkitt's Lymphoma). The description is as above. An outline of the steps: as §1
The next assay concerns COLO-792 (Melanoma). The description is as above. An outline of the steps:
as §1

In assay [3] the test system is ESO26 (Esophageal Adenocarcinoma). The assay is described as above. An outline of the steps: as §1
The test system of a further assay is EW-7 (Ewing's Sarcoma). Described as above. The method in brief: as §1
In assay [4] the test system is JHU-022 (Oral Cavity Carcinoma). The assay is described as above. An outline of the steps:
as §1

The subject of assay [5] is LS-411N (Colorectal Carcinoma). The assay is described as above. An outline of the steps:
as §1

Assay [6] relates to MHH-ES-1 (Ewing's Sarcoma). The assay is described as above. The method in brief:
as §1

A further assay deals with NB13 (Neuroblastoma). The description is as above. An outline of the steps: as §1
In assay [7] the test system is NCI-H1703 (Squamous Cell Lung Carcinoma). Described as above. The method in brief: as §1
The test system of assay [8] is NCI-H441 (Lung Adenocarcinoma). The assay is described as above. The method in brief: as §1
Assay [9] relates to NCI-H716 (Colorectal Carcinoma). Described as above. The method in brief:
as §1

The subject of another assay is PEO1 (Ovarian Carcinoma). The assay is described as above. The method in brief:
as §1

Another assay deals with WM1552C (Melanoma). The description is as above. An outline of the steps: as §1
Assay [10] deals with AU565 (Breast Carcinoma). Nature of the assay: combination Emax (second highest fraction inhibited in the dose matrix, 72 h); higher = more inhibition; extreme values may be limits of the assay. An outline of the steps: as §1
The subject of assay [11] is HCC1395 (Breast Carcinoma). Described as above. An outline of the steps: as §1
Assay [12] concerns LU-165 (Small Cell Lung Carcinoma). Described as above. The method in brief:
as §1

Assay [13] relates to NCI-H1703 (Squamous Cell Lung Carcinoma). The description is as above. The method in brief:
as §1

For assay [14], the system named is NCI-H2087 (Lung Adenocarcinoma). The assay is described as above. The method in brief:
as §1
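For Bliss excess, mean over the matrix in this document: after 72 h of two-drug dosing.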

Consider `CCN(CCO)CCCOc1ccc2c(Nc3cc(CC(=O)Nc4cccc(F)c4)[nH]n3)ncnc2c1` [AZD2811] + C=CCn1c(=O)c2cnc(Nc3ccc(N4CCN(C)CC4)cc3)nc2n1-c1cccc(C(C)(C)O)n1 [AZD1775] (first compound max 1 µM, partner max 1 µM), for which the Bliss excess in the assay on A204 (Rhabdomyosarcoma) was 0.0168; with AU565 (Breast Carcinoma) [1], 0.0437; in assay [2], 0.0165; with COLO-792 (Melanoma), 0.043; in assay [3] it was -0.0247; in the assay with EW-7 (Ewing's Sarcoma), 0.0623. Also, the Bliss excess in assay [4] is -0.0217; in [5], -0.0174; in assay [6], 0.0089; in the assay on NB13 (Neuroblastoma), 0.0265; in assay [7], -0.0453; in assay [8], -0.0518. The Bliss excess in [9] is 0.0847; in the assay on PEO1 (Ovarian Carcinoma), -0.0025; with WM1552C (Melanoma) it was 0.0035. For the same compound, the “combination Emax” value in the assay with AU565 (Breast Carcinoma) [10] turned out to be 0.449; in [11], 0.682; in assay [12] it was 0.333; in [13], 0.94; in assay [14], 0.291.

For `CCN(CCO)CCCOc1ccc2c(Nc3cc(CC(=O)Nc4cccc(F)c4)[nH]n3)ncnc2c1` [AZD2811] + C[C@@H]1COCCN1C2=NC(=NC(=C2)C3(CC3)[S@](=N)(=O)C)C4=C5C=CNC5=NC=C4 [AZD6738] (first compound max 1 µM, 7x7, partner max 10 µM), the Bliss excess with A204 (Rhabdomyosarcoma) is -0.0492; with AU565 (Breast Carcinoma) [1] it was -0.002; in assay [2] it was -0.0698; with COLO-792 (Melanoma), 0.0336; in assay [3], -0.0427; in the assay on EW-7 (Ewing's Sarcoma), -0.0469. Further, the Bliss excess in assay [4] is -0.0357; in assay [5] it was -0.0366; in assay [6] it was -0.0145; in the assay with NB13 (Neuroblastoma), -0.0727; in [7] it was -0.0148; in [8], -0.0324. The Bliss excess is -0.0765 in assay [9], -0.0718 with PEO1 (Ovarian Carcinoma) and -0.0468 in the assay with WM1552C (Melanoma). Also, the “combination Emax” value was found to be 0.362 in the assay on AU565 (Breast Carcinoma) [10]; 0.785 in [11]; 0.38 in assay [12]; 0.834 in assay [13]; 0.662 in [14].

For `CCN(CCO)CCCOc1ccc2c(Nc3cc(CC(=O)Nc4cccc(F)c4)[nH]n3)ncnc2c1` [AZD2811] + O=C(c1cc(Cc2n[nH]c(=O)c3ccccc23)ccc1F)N1CCN(C(=O)C2CC2)CC1 [Olaparib] (first compound max 1 µM, 7x7, partner max 10 µM), the Bliss excess with A204 (Rhabdomyosarcoma) was 0.0034; in the assay with AU565 (Breast Carcinoma) [1], -0.011; in assay [2], 0.02; in the assay with COLO-792 (Melanoma), -0.0187; in assay [3], -0.0311; with EW-7 (Ewing's Sarcoma), 0.0067. Also, the Bliss excess was -0.021 in assay [4]; -0.0082 in assay [5]; -0.0214 in [6]; 0.0211 with NB13 (Neuroblastoma); 0.0062 in assay [7]; -0.0417 in [8]. Also, the Bliss excess in assay [9] was 0.0047; with PEO1 (Ovarian Carcinoma), -0.0019; in the assay with WM1552C (Melanoma) it was -0.027. The “combination Emax” value worked out at 0.214 in the assay with AU565 (Breast Carcinoma) [10]; 0.328 in assay [11]; 0.29 in assay [12]; 0.519 in assay [13]; 0.163 in [14].

Consider `COc1nnc2ccc(N3CCC(c4ccc(OCCN5CCN(C)C(=O)[C@H]5C)cc4)CC3)nn12` [AZD5153] + C=CCn1c(=O)c2cnc(Nc3ccc(N4CCN(C)CC4)cc3)nc2n1-c1cccc(C(C)(C)O)n1 [AZD1775] (first compound max 1 µM, partner max 1 µM), for which the Bliss excess with A204 (Rhabdomyosarcoma) was -0.0887; in the assay on AU565 (Breast Carcinoma) [1], -0.0144; in [2], -0.0572; in the assay with COLO-792 (Melanoma), 0.0823; in assay [3], -0.0501; with EW-7 (Ewing's Sarcoma) it was -0.0403. Also, the Bliss excess in assay [4] is -0.0698; in assay [5], -0.0334; in [6], -0.0662; in the assay with NB13 (Neuroblastoma), -0.0645; in [7] it was 0.0052; in assay [8], -0.0322. Besides, the Bliss excess in assay [9] is -0.0734; in the assay with PEO1 (Ovarian Carcinoma) it was 0.058; with WM1552C (Melanoma), -0.0776. The “combination Emax” value turned out to be 0.742 in the assay with AU565 (Breast Carcinoma) [10]; 0.524 in [11]; 0.602 in assay [12]; 0.992 in [13]; 0.627 in [14].

As for `COc1nnc2ccc(N3CCC(c4ccc(OCCN5CCN(C)C(=O)[C@H]5C)cc4)CC3)nn12` [AZD5153] + CC1(C)CCC(CN2CCN(c3ccc(C(=O)NS(=O)(=O)c4ccc(NCC5CCOCC5)c([N+](=O)[O-])c4)c(Oc4cnc5[nH]ccc5c4)c3)CC2)=C(c2ccc(Cl)cc2)C1 [Venetoclax] (first compound max 1 µM, 7x7, partner max 1 µM), the Bliss excess is -0.0383 in the assay with A204 (Rhabdomyosarcoma); 0.0002 in the assay on AU565 (Breast Carcinoma) [1]; -0.052 in assay [2]; -0.0162 in the assay with COLO-792 (Melanoma); -0.0776 in [3]; -0.0122 in the assay on EW-7 (Ewing's Sarcoma). Also, the Bliss excess is -0.0043 in assay [4]; -0.0573 in [5]; -0.046 in assay [6]; -0.137 with NB13 (Neuroblastoma); -0.0404 in assay [7]; -0.0137 in assay [8]. The Bliss excess was -0.0035 in assay [9], -0.0771 in the assay with PEO1 (Ovarian Carcinoma) and -0.0691 in the assay with WM1552C (Melanoma). The “combination Emax” value amounted to 0.311 with AU565 (Breast Carcinoma) [10]; 0.411 in assay [11]; 0.468 in assay [12]; 0.655 in assay [13]; 0.389 in assay [14].

Regarding `COc1nnc2ccc(N3CCC(c4ccc(OCCN5CCN(C)C(=O)[C@H]5C)cc4)CC3)nn12` [AZD5153] + CCN(CCO)CCCOc1ccc2c(Nc3cc(CC(=O)Nc4cccc(F)c4)[nH]n3)ncnc2c1 [AZD2811] (first compound max 1 µM, 7x7, partner max 1 µM), the Bliss excess with A204 (Rhabdomyosarcoma) was -0.0849; in the assay on AU565 (Breast Carcinoma) [1], -0.0016; in assay [2], -0.0088; with COLO-792 (Melanoma), -0.0406; in assay [3], 0.0002; in the assay on EW-7 (Ewing's Sarcoma) it was 0.0274. For the same compound, the Bliss excess is -0.0601 in assay [4]; -0.0233 in assay [5]; -0.0345 in assay [6]; -0.0336 with NB13 (Neuroblastoma); -0.038 in assay [7]; -0.0236 in assay [8]. In addition, the results for the Bliss excess (in assay [9]; in the assay on PEO1 (Ovarian Carcinoma); in the assay on WM1552C (Melanoma)) were -0.0316, -0.0137 and -0.0615, respectively. In addition, the “combination Emax” value was determined as 0.359 with AU565 (Breast Carcinoma) [10]; 0.398 in [11]; 0.458 in assay [12]; 0.721 in assay [13]; 0.351 in assay [14].

For `COc1nnc2ccc(N3CCC(c4ccc(OCCN5CCN(C)C(=O)[C@H]5C)cc4)CC3)nn12` [AZD5153] + C[C@@H]1COCCN1C2=NC(=NC(=C2)C3(CC3)[S@](=N)(=O)C)C4=C5C=CNC5=NC=C4 [AZD6738] (first compound max 1 µM, 7x7, partner max 10 µM), the Bliss excess in the assay on A204 (Rhabdomyosarcoma) was 0.042; in the assay with AU565 (Breast Carcinoma) [1], 0.009; in assay [2], -0.0051; in the assay on COLO-792 (Melanoma), 0.0774; in assay [3] it was 0.0343; in the assay on EW-7 (Ewing's Sarcoma), 0.034. In addition, the Bliss excess is -0.0134 in assay [4]; 0.0754 in [5]; 0.0074 in assay [6]; -0.0149 with NB13 (Neuroblastoma); 0.02 in assay [7]; 0.0192 in [8]. Further, the Bliss excess was -0.0312 in assay [9], 0.0911 in the assay with PEO1 (Ovarian Carcinoma) and -0.0783 with WM1552C (Melanoma). The “combination Emax” value worked out at 0.502 in the assay with AU565 (Breast Carcinoma) [10]; 0.671 in [11]; 0.685 in [12]; 0.973 in assay [13]; 0.728 in assay [14].
